Test results taken from ChEMBL document CHEMBL4043166, “Triazole tethered isatin-coumarin based molecular hybrids as novel antitubulin agents: Design, synthesis, biological investigation and docking studies” (Bioorg Med Chem Lett, 2017).
Activity calls are given as the source filed them. The calls are words filed in the database; no cut-off is given here.

What was measured:
HCT-116 [1] = assay: Cytotoxicity against human HCT116 cells assessed as cell growth inhibition after 48 hrs by SRB assay; assay type: functional, cell-based; conditions: HCT-116, 48 h
COLO 205 [2] = assay: Cytotoxicity against human COLO205 cells assessed as cell growth inhibition after 48 hrs by SRB assay; assay type: functional, cell-based; conditions: COLO 205, 48 h
THP-1 [3] = assay: Cytotoxicity against human THP1 cells assessed as cell growth inhibition after 48 hrs by SRB assay; assay type: functional, cell-based; conditions: THP-1, 48 h
PC-3 = assay: Cytotoxicity against human PC3 cells assessed as growth inhibition at 50 uM after 48 hrs by SRB assay relative to control; assay type: functional; conditions: PC-3, 48 h, read-out: GI
COLO 205 [4] = assay: Cytotoxicity against human COLO205 cells assessed as growth inhibition at 50 uM after 48 hrs by SRB assay relative to control; assay type: functional; conditions: COLO 205, 48 h, read-out: GI
THP-1 [5] = assay: Cytotoxicity against human THP1 cells assessed as growth inhibition at 50 uM after 48 hrs by SRB assay relative to control; assay type: functional; conditions: THP-1, 48 h, read-out: GI
HCT-116 [6] = assay: Cytotoxicity against human HCT116 cells assessed as growth inhibition at 50 uM after 48 hrs by SRB assay relative to control; assay type: functional; conditions: HCT-116, 48 h, read-out: GI
Homo sapiens [7] = organism: Homo sapiens; assay: Inhibition of tubulin polymerization in human THP1 cells assessed as disrupted microtubule formation at 5 uM after 48 hrs by confocal microscopic analysis; assay type: cell-based
[8] = Inhibition of tubulin (unknown origin) polymerization; design: species or system Homo sapiens
Homo sapiens [9] = organism: Homo sapiens; assay: Inhibition of tubulin polymerization in human THP1 cells assessed as disrupted microtubule formation at 1 uM after 48 hrs by confocal microscopic analysis; assay type: cell-based

Structure (SMILES)	IC50 (HCT-116 [1])	IC50 (COLO 205 [2])	IC50 (THP-1 [3])	inhibition of growth at 50 µM (PC-3)	inhibition of growth at 50 µM (COLO 205 [4])	inhibition of growth at 50 µM (THP-1 [5])	inhibition of growth at 50 µM (HCT-116 [6])	inhibition (Homo sapiens [7])	IC50 [8]	inhibition (Homo sapiens [9])
O=C1C(=O)N(CCCCn2cc(COc3cc(=O)oc4ccccc34)nn2)c2ccc(Cl)cc21	12.8 µM	13.1 µM	7.56 µM	14%	60%	71%	62%			
O=C1C(=O)N(CCn2cc(COc3cc(=O)oc4ccccc34)nn2)c2ccc(Cl)cc21	5.77 µM	8.87 µM	5.47 µM	22%	76%	87%	70%			
O=C1C(=O)N(CCCCn2cc(COc3cc(=O)oc4ccccc34)nn2)c2ccc(F)cc21	10.4 µM	9.11 µM	7.1 µM	17%	64%	77%	67%			
O=C1C(=O)N(CCCCn2cc(COc3cc(=O)oc4ccccc34)nn2)c2ccc([N+](=O)[O-])cc21				8%	45%	55%	53%			
O=C1C(=O)N(CCCCCn2cc(COc3cc(=O)oc4ccccc34)nn2)c2ccc(F)cc21					56%	63%	59%			
O=C1C(=O)N(CCn2cc(COc3cc(=O)oc4ccccc34)nn2)c2ccccc21	3.04 µM	3.45 µM	0.73 µM	28%	80%	98%	87%	Active	1.06 µM	
O=C1C(=O)N(CCCCCn2cc(COc3cc(=O)oc4ccccc34)nn2)c2ccc(Br)cc21					39%	52%	43%			
COc1ccc2c(c1)C(=O)C(=O)N2CCn1cc(COc2cc(=O)oc3ccccc23)nn1				14%	53%	68%	65%			
O=C1C(=O)N(CCCCCn2cc(COc3cc(=O)oc4ccccc34)nn2)c2ccc([N+](=O)[O-])cc21					23%	37%	29%			
O=C1C(=O)N(CCCCn2cc(COc3cc(=O)oc4ccccc34)nn2)c2ccccc21	8.05 µM	7.67 µM	5.12 µM	19%	68%	85%	72%			
O=C1C(=O)N(CCCn2cc(COc3cc(=O)oc4ccccc34)nn2)c2ccccc21	5.18 µM	5.71 µM	5.03 µM	25%	75%	93%	79%		6.32 µM	
O=C1C(=O)N(CCn2cc(COc3cc(=O)oc4ccccc34)nn2)c2ccc(I)cc21	8.99 µM	12 µM	7.01 µM	17%	62%	74%	70%			
O=C1C(=O)N(CCCn2cc(COc3cc(=O)oc4ccccc34)nn2)c2ccc([N+](=O)[O-])cc21				12%	52%	60%	60%			
O=C1C(=O)N(CCCn2cc(COc3cc(=O)oc4ccccc34)nn2)c2ccc(Br)cc21	11.5 µM	13 µM	7.14 µM	14%	61%	72%	66%			
O=C1C(=O)N(CCCCn2cc(COc3cc(=O)oc4ccccc34)nn2)c2ccc(I)cc21				10%	50%	59%	57%			
O=C1C(=O)N(CCCn2cc(COc3cc(=O)oc4ccccc34)nn2)c2ccc(I)cc21				14%	56%	67%	65%			
O=C1C(=O)N(CCCn2cc(COc3cc(=O)oc4ccccc34)nn2)c2ccc(F)cc21	7.26 µM	8.88 µM	5.76 µM	20%	69%	86%	75%			
O=C1C(=O)N(CCCCCn2cc(COc3cc(=O)oc4ccccc34)nn2)c2ccc(I)cc21					30%	45%	36%			
CC(=O)O[C@H]1C(=O)[C@@]2(C)[C@H]([C@H](OC(=O)c3ccccc3)[C@]3(O)C[C@H](OC(=O)[C@H](O)[C@@H](NC(=O)c4ccccc4)c4ccccc4)C(C)=C1C3(C)C)[C@]1(OC(C)=O)CO[C@@H]1C[C@@H]2O										Active
COc1ccc2c(c1)C(=O)C(=O)N2CCCCn1cc(COc2cc(=O)oc3ccccc23)nn1					41%	52%	48%			
O=C1C(=O)N(CCCn2cc(COc3cc(=O)oc4ccccc34)nn2)c2ccc(Cl)cc21	9.66 µM	10.7 µM	6.99 µM	18%	67%	78%	68%			
O=C1C(=O)N(CCn2cc(COc3cc(=O)oc4ccccc34)nn2)c2ccc(Br)cc21	8.09 µM	10.5 µM	6.43 µM	21%	65%	80%	72%			
COc1ccc2c(c1)C(=O)C(=O)N2CCCCCn1cc(COc2cc(=O)oc3ccccc23)nn1					19%	30%	25%			
O=C1C(=O)N(CCCCCn2cc(COc3cc(=O)oc4ccccc34)nn2)c2ccc(Cl)cc21					48%	59%	52%			
O=C1C(=O)N(CCCCCn2cc(COc3cc(=O)oc4ccccc34)nn2)c2ccccc21				9%	62%	69%	65%			
O=C1C(=O)N(CCCCn2cc(COc3cc(=O)oc4ccccc34)nn2)c2ccc(Br)cc21				13%	56%	63%	59%			
COc1ccc2c(c1)C(=O)C(=O)N2CCCn1cc(COc2cc(=O)oc3ccccc23)nn1				9%	48%	56%	52%			
O=C1C(=O)N(CCn2cc(COc3cc(=O)oc4ccccc34)nn2)c2ccc([N+](=O)[O-])cc21	9.54 µM	13 µM	8.57 µM	15%	59%	71%	68%			
O=C1C(=O)N(CCn2cc(COc3cc(=O)oc4ccccc34)nn2)c2ccc(F)cc21	5.41 µM	6.67 µM	1.99 µM	26%	76%	92%	80%		3.55 µM	
